What was measured:
[1] = Solubility of the isolated conjugate in methanol and water; assay type: physicochemical; details: isolated product after preparative TLC
Method: More particularly, 2.2 mg (4 micromoles) of 6-((4,4-difluoro-5,7-dimethyl-4-bora-3a,4a-diaza-s-indacene-3-propionyl)amino)hexanoic acid, succinimidyl ester was dissolved in 0.3 ml of DMF followed by the addition of 6 mg (28 micromoles) of glucosamine HCL dissolved in 0.3 ml of water and 3.9 microliters (28 micromoles) of triethyl amine. The reaction was stirred for 24 hrs at room temperature, evaporated under reduced pressure, and dissolved in a minimum of methanol. This solution was spread on a preparative TLC plate (silica), dried, and developed with 2.5% water in acetonitrile. The plate was then dried and the product visualized with a UV light.
About 4 mg (4.8 micromoles) of Texas Red®-X, succinimidyl ester *single isomer* (816.94 MW, Molecular Probes, T-20175) were dissolved in 1.2 ml of methanol and combined with 4 mg (18 micromoles) of glucosamine HCl (Sigma) in 600 microliters of water. About 2.5 microliters (18 micromoles) of triethylamine were then added. The reaction was stirred overnight at 20° C. and then evaporated under reduced pressure. The gum was dissolved in methanol and spread on a preparative TLC plate (silica), dried, and developed with 10% water in acetonitrile. The plate was then dried and the product visualized with a UV light. […] B. Synthesis of 5-(and 6) Carboxynaphtofluorescein Glucosamine Conjugate [drawing 12]
About 8.3 mg (14 micromoles) of 5-(and-6)-carboxynaphthofluorescein, succinimidyl ester *mixed isomers* (MW 573.51, Molecular Probes, C-653) were dissolved in 2 ml of DMF, and 10 mg (46 micromoles) of glucosamine HCl (Sigma) in 1 ml of water was added. About 5.8 microliters (46 micromoles) of triethylamine were then added. The reaction was stirred overnight at 20° C. and then evaporated under reduced pressure. The gum was dissolved in 25% water in methanol and spread on a preparative TLC plate (silica), dried, and developed with 10% water in acetonitrile. The plate was then dried and the product visualized with a UV light. […] C. Synthesis of Glucosamine N-Methylanthranilamide Conjugate [drawing 13]

[2] = tested on: Raji lymphoma cells; assay: 2-NBDG uptake in Raji lymphoma cells versus peripheral blood white cells (PBMC); assay type: cell-based; details: Raji lymphoma cells vs PBMC; 200 uM; 40 min; 37° C.; fluorescence plate reader (FIG. 2)
Method: Raji cells from culture one t-75 flask. Peripheral blood white cells from Stanford Blood Bank. Leukocytes were further separated by Ficoll separation (twice). These cells are referred to as PBMC (peripheral blood mononuclear cells). Phosphate-buffered saline. 2-NBDG, 0.1 M in water.
Culture medium with cells (either Raji or PBMC, 15 mL) were centrifuged for 10 min at 800×g. The pellet of cells was resuspended in PBS and centrifuged for 10 min at 800×g, and the resulting pellet was resuspended in 1.5 mL PBS. Cells were counted and adjusted to 1×10^6 per mL for both. Aliquots (100 uL) were placed into each of 2 tubes for each cell type, and the tubes were incubated at 37° C. for 15 min. The fluorescent deoxyglucose conjugate 2-NBDG was added to each tube to provide a concentration of 200 uM. At 40 min, the tubes were removed from the 37° C. bath and immediately placed on ice. The cells were washed twice with PBS and resuspended in 100 uL of PBS. A 20 uL aliquot was placed in each of 5 wells of an LJL 96-well plate, and fluorescence was counted by a LJL plate reader.

| Compound | solubility in methanol [1] | solubility in water [1] | uptake by a cancer cell as compared to a normal cell [2] |
| --- | --- | --- | --- |
| O=C(CCCCCNS(=O)(=O)c1ccc(C2=c3cc4c5c(c3Oc3c2cc2c6c3CCCN6CCC2)CCC[N+]=5CCC4)c(S(=O)(=O)[O-])c1)NC1C(O)OC(CO)C(O)C1O (single isomer, unassigned) [Texas Red Glucosamine Conjugate] | soluble | sparingly soluble | – |
| O=C(NC1C(O)OC(CO)C(O)C1O)c1ccc(C(=O)O)c(-c2c3ccc4cc(O)ccc4c3oc3c2ccc2cc(=O)ccc23)c1 (centres unmarked) | soluble | sparingly soluble | – |
| O=C[C@H](Nc1ccc([N+](=O)[O-])c2nonc12)[C@@H](O)[C@H](O)[C@H](O)CO [2-NBDG, 2-(N-(7-nitrobenz-2-oxa-1,3-diazol-4-yl)amino)-2-deoxyglucose] | – | – | preferred uptake |

From patent US6989140B2, “Methods for cancer imaging” (Threshold Pharmaceuticals, Inc., priority 2001, dated 2006)
